This passage reports EC50 results from patent US12629374B2, “Antimalarial agents” (Merck Sharp & Dohme LLC, priority 2020, dated 2026).

The first assay deals with ring stage parasites. The assay can be described thus: Parasite growth potency assay, 72 hours, LDH readout. The settings on record: 72 h, parasite growth measured by LDH assay after 72 hours at 37° C.; 0.7% rings, 2% haematocrit; read-out: EC50. The format is cell-based. Put shortly: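 Parasite growth was quantified by LDH assay after a −80 °C freeze-thaw. Before that, compound was incubated for 72 h at 37 °C under humidified gas with ring-stage cultures adjusted to 0.7% parasitemia and 2% haematocrit in serum- and albumax-supplemented RPMI-Hepes.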
Broadly, the EC50 is the concentration needed to bring the measured effect to its halfway point. Turning to `CC(C)[C@]1(C)CC(=O)N(Cc2cc(F)cc(C(=O)N[C@H]3CCOc4ccccc43)c2)C(=N)N1` [Example 29, [(4S)-1-[[3-[[(4S)-chroman-4-yl]carbamoyl]-5-fluoro-phenyl]methyl]-4-isopropyl-4-methyl-6-oxo-hexahydropyrimidin-2-ylidene]ammonium; 2,2,2-trifluoroacetate], the EC50 came out at 7.7 nM.

In the case of `CCC1(CC)CC(=O)N(Cc2cccc(C(=O)N[C@H]3CC(C)(C)Oc4cccc(F)c43)c2)C(=N)N1` (stereo in doubt) [Example 94A, [4,4-diethyl-1-[[3-[(5-fluoro-2,2-dimethyl-chroman-4-yl)carbamoyl]phenyl]methyl]-6-oxo-hexahydropyrimidin-2-ylidene]ammonium; 2,2,2-trifluoroacetate], the EC50 was 0.4 nM.

For the molecule `CCC1(COC)CC(=O)N(Cc2cccc(C(=O)N[C@H]3CC(C)(C)Oc4ccccc43)c2)C(=N)N1` (stereo partly drawn) [Example 98A, [1-[[3-[[(4S)-2,2-dimethylchroman-4-yl]carbamoyl]phenyl]methyl]-4-ethyl-4-(methoxymethyl)-6-oxo-hexahydropyrimidin-2-ylidene]ammonium; 2,2,2-trifluoroacetate], the EC50 stood at 15.5 nM.

`CCC1(CC)CC(=O)N([C@H](CCOC)c2cc(F)cc(C(=O)N[C@@H]3c4ccccc4OC(C)(C)[C@H]3O)c2)C(=N)N1` (stereo in doubt) [Example 129A, [4,4-diethyl-1-[1-[3-fluoro-5-[(3-hydroxy-2,2-dimethyl-chroman-4-yl)carbamoyl]phenyl]-3-methoxy-propyl]-6-oxo-hexahydropyrimidin-2-ylidene]ammonium; 2,2,2-trifluoroacetate]: the concentration giving a half-maximal response (EC50) was 0.8 nM.

With `CCC1(CC)CC(=O)N([C@H](CCOC)c2cccc(C(=O)N[C@H]3c4ccccc4C4(CC4)[C@@H]3O)c2)C(=N)N1` [Example 191B, [4,4-diethyl-1-[(1R)-1-[3-[(2′-hydroxyspiro[cyclopropane-1,3′-indane]-1′-yl)carbamoyl]phenyl]-3-methoxy-propyl]-6-oxo-hexahydropyrimidin-2-ylidene]ammonium; 2,2,2-trifluoroacetate], the EC50 stood at 90.2 nM.

For `CC(C)[C@]1(C)CC(=O)N([C@H](c2cccnc2)c2cccc(C(=O)N[C@H]3CC(C)(C)Oc4ccccc43)c2)C(=N)N1` [Example 101A, [(4S)-1-[[3-[[(4S)-2,2-dimethylchroman-4-yl]carbamoyl]phenyl]-pyridin-1-ium-3-yl-methyl]-4-isopropyl-4-methyl-6-oxo-hexahydropyrimidin-2-ylidene]ammonium; 2,2,2-trifluoroacetate], the EC50 was determined as 0.3 nM.

For `CCC1(CC)CC(=O)N(Cc2cc(F)cc(C(=O)N[C@@H]3c4ccccc4C[C@H]3O)c2)C(=N)N1` [Example 35, [4,4-diethyl-1-[[3-fluoro-5-[[(1R,2R)-2-hydroxyindan-1-yl]carbamoyl]phenyl]methyl]-6-oxo-hexahydropyrimidin-2-ylidene]ammonium; 2,2,2-trifluoroacetate], the EC50 amounted to 2 nM.

Regarding `CCC1(CC)CC(=O)N(Cc2cccc(C(=O)NC3(C)CCOc4ccccc43)c2)C(=N)N1` (stereo not shown) [Example 113, 3-[(4,4-diethyl-2-imino-6-oxo-hexahydropyrimidin-1-yl)methyl]-N-(4-methylchroman-4-yl)benzamide], the EC50 turned out to be 96.1 nM.

Take `CCC1(CC)CC(=O)N([C@H](CCS(C)(=O)=O)c2cccc(C(=O)N[C@H]3CC(C)(C)Oc4ccccc43)c2)C(=N)N1` [Example 156, [1-[1-[3-[[(4S)-2,2-dimethylchroman-4-yl]carbamoyl]phenyl]-3-methylsulfonyl-propyl]-4,4-diethyl-6-oxo-hexahydropyrimidin-2-ylidene]ammonium; 2,2,2-trifluoroacetate]: the EC50 was 5.7 nM.

Consider `CC[C@]1(c2ccccc2)CC(=O)N(Cc2cc(F)cc(C(=O)N[C@H]3CCOc4ccccc43)c2)C(=N)N1` [Example 52, [(4R)-1-[[3-[[(4S)-chroman-4-yl]carbamoyl]-5-fluoro-phenyl]methyl]-4-ethyl-6-oxo-4-phenyl-hexahydropyrimidin-2-ylidene]ammonium; 2,2,2-trifluoroacetate], for which the EC50 amounted to 20.1 nM.

With `CCC12CCCCCCCC3CC(NC(=O)c4cccc(c4)CN(C(=N)N1)C(=O)C2)c1ccccc1O3` (stereo not shown) [Example 118, (26-ethyl-8,29-dioxo-17-oxa-1,9,27-triazapentacyclo[24.2.2.13,7.110,18. 011,16]dotriaconta-3,5,7(32),11(16),12,14-hexaen-28-ylidene)ammonium; 2,2,2-trifluoroacetate], the EC50 worked out at 56.5 nM.

Regarding `CCC1(CC)CC(=O)N(Cc2cc(C(=O)N[C@H]3C[C@H](C(F)(F)F)Oc4ccccc43)ccn2)C(=N)N1` [Example 134, [4,4-diethyl-6-oxo-1-[[4-[[(2R,4S)-2-(trifluoromethyl)chroman-4-yl]carbamoyl]pyridin-1-ium-2-yl]methyl]hexahydropyrimidin-2-ylidene]ammonium; 2,2,2-trifluoroacetate], the EC50 stood at 8.6 nM.

For the molecule `CCC1(CC)CC(=O)N([C@H](COCCOC)c2cccc(C(=O)N[C@@H]3c4ccccc4OC(C)(C)[C@H]3O)c2)C(=N)N1` [Example 139, [4,4-diethyl-1-[(1S)-1-[3-[[(3S,4R)-3-hydroxy-2,2-dimethyl-chroman-4-yl]carbamoyl]phenyl]-2-(2-methoxyethoxy)ethyl]-6-oxo-hexahydropyrimidin-2-ylidene]ammonium; 2,2,2-trifluoroacetate], the EC50 came to 1.5 nM.

Regarding `CCC1(COC)CC(=O)N(Cc2cccc(C(=O)N[C@@H]3c4ccccc4C[C@H]3O)c2)C(=N)N1` (stereo partly drawn) [Example 95, [4-ethyl-1-[[3-[[(1R,2R)-2-hydroxyindan-1-yl]carbamoyl]phenyl]methyl]-4-(methoxymethyl)-6-oxo-hexahydropyrimidin-2-ylidene]ammonium; 2,2,2-trifluoroacetate], the EC50 was 43.2 nM.

As for `CCC1(CC)CC(=O)N([C@H](CCN2CCOCC2)c2cccc(C(=O)N[C@H]3CC(C)(C)Oc4ccccc43)c2)C(=N)N1` [Example 135, [1-[1-[3-[[(4S)-2,2-dimethylchroman-4-yl]carbamoyl]phenyl]-3-morpholin-4-ium-4-yl-propyl]-4,4-diethyl-6-oxo-hexahydropyrimidin-2-ylidene]ammonium; 2,2,2-trifluoroacetate], the 50% effective concentration (EC50) came out at 1 nM.

In the case of `CCC1(CC)CC(=O)N(C(CCOC)c2ccc(C(F)(F)F)c(C(=O)N[C@@H]3c4ccccc4OC[C@]3(C)O)c2)C(=N)N1` (stereo partly drawn) [Example 245, 5-[1-(4,4-diethyl-2-imino-6-oxo-hexahydropyrimidin-1-yl)-3-methoxy-propyl]-N-[(3R,4R)-3-hydroxy-3-methyl-chroman-4-yl]-2-(trifluoromethyl)benzamide], the EC50 was found to be 1.6 nM.

Staying with this assay, now noted: parasite growth measured by LDH assay after 72 hours at 37° C.; 0.7% rings, 2% haematocrit; read-out: EC50.
`CC[C@]1(C)CC(=O)N([C@H](CCOC)c2cccc(C(=O)NC3c4ccccc4OC(C)(C)C3(C)O)c2)C(=N)N1` (single isomer, unassigned) [Example 234B]: the EC50 is 74.8 nM.

On to `CCC1(C)CC(=O)N([C@H](CCOC)c2cccc(C(=O)N[C@@H]3c4ccccc4CC3(C)O)c2)C(=N)N1` (stereo partly drawn) [Example 196B, 3-[(1R)-1-(4-ethyl-2-imino-4-methyl-6-oxo-hexahydropyrimidin-1-yl)-3-methoxy-propyl]-N-[(1R,2S)-2-hydroxy-2-methyl-indan-1-yl]benzamide], for which the EC50 turned out to be 3.1 nM.

Turning to `CCC[C@H](c1cccc(C(=O)N[C@@H]2c3ccccc3OC[C@]2(C)O)c1)N1C(=N)NC(CC)(CC)CC1=O` [Example 163B, 3-[(1R)-1-(4,4-diethyl-2-imino-6-oxo-hexahydropyrimidin-1-yl)butyl]-N-[(3R,4R)-3-hydroxy-3-methyl-chroman-4-yl]benzamide], the EC50 was 0.4 nM.

As to `CCC1(CC)CC(=O)N(C(CC(O)C(F)(F)F)c2cccc(C(=O)N[C@@H]3c4ccccc4C[C@H]3O)c2)C(=N)N1` (single isomer, unassigned) [Example 236A], the EC50 was found to be 55 nM.

`CCC1(C)CC(=O)N([C@H](CCOC)c2cccc(C(=O)N[C@@H]3c4ccccc4CC3(C)O)c2)C(=N)N1` (stereo partly drawn) [Example 196D, 3-[(1R)-1-(4-ethyl-2-imino-4-methyl-6-oxo-hexahydropyrimidin-l-yl)-3-methoxy-propyl]-N-[(1R,2R)-2-hydroxy-2-methyl-indan-1-yl]benzamide]: the half-maximal effective concentration (EC50) was 6.8 nM.

The same assay, now with this note: parasite growth measured by LDH assay after 72 hours at 37° C.; 0.7% rings, 2% haematocrit; trifluoroacetate; read-out: EC50.
Turning to `CCC1(CC)CC(=O)N(Cc2cncc(C(=O)NC3CC(C)(C)Oc4ccccc43)c2)C(=N)N1` (stereo not shown) [Example 82, [1-[[5-[(2,2-dimethylchroman-4-yl)carbamoyl]pyridin-1-ium-3-yl]methyl]-4,4-diethyl-6-oxo-hexahydropyrimidin-2-ylidene]ammonium; 2,2,2-trifluoroacetate], the EC50 turned out to be 39.4 nM.

With `CCC1(CC)CC(=O)N([C@H](CCOC)c2cccc(C(=O)NC3c4ccccc4C(F)(F)C3O)c2)C(=N)N1` (stereo partly drawn) [Example 189A, [1-[(1R)-1-[3-[(3,3-difluoro-2-hydroxy-indan-1-yl)carbamoyl]phenyl]-3-methoxy-propyl]-4,4-diethyl-6-oxo-hexahydropyrimidin-2-ylidene]ammonium; 2,2,2-trifluoroacetate], the EC50 came to 0.8 nM.

As for `CCC1(CC)CC(=O)N(Cc2cccc(C(=O)N[C@H]3CC(c4ccccc4)Oc4ccccc43)c2)C(=N)N1` (stereo in doubt) [Example 218B, [4,4-diethyl-6-oxo-1-[[3-[(2-phenylchroman-4-yl)carbamoyl]phenyl]methyl]hexa-hydropyrimidin-2-ylidene]ammonium; 2,2,2-trifluoroacetate], the EC50 came to 1.1 nM.

Take `CCC1(C)CC(=O)N([C@H](CCOC)c2cccc(C(=O)N[C@@H]3c4ccccc4C[C@H]3O)c2)C(=N)N1` (stereo partly drawn) [Example 195B, [4-ethyl-1-[(1R)-1-[3-[[(1R,2R)-2-hydroxyindan-1-yl]carbamoyl]phenyl]-3-methoxy-propyl]-4-methyl-6-oxo-hexahydropyrimidin-2-ylidene]ammonium; 2,2,2-trifluoroacetate]: the EC50 worked out at 2.7 nM.
